# PubChem BioAssay (NCI)
# Values joined by “and” are separate entries in the source; they are usually repeats but may differ in a detail not shown here. Equal values may be shown once.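 Protocol summary: plate cells (96-well), add compound at 5 concentrations, incubate 48 h, interpolate endpoints linearly. At the GI50, growth is halved. TGI is the concentration that stops growth completely.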
# Tested on: MALME-3M melanoma
# Assay: NCI-60 cell line screen, 48 h
Compound,TGI,GI50 [µM]
O=c1/c(=C/c2ccccc2[N+](=O)[O-])sc2nnc(-c3ccco3)n12,47.1 µM,
COC(=O)C[C@](O)(CCCC(C)(C)O)C(=O)O[C@@H]1C(OC)=C[C@]23CCCN2CCc2cc4c(cc2[C@H]13)OCO4,0.268 µM and 0.0635 µM,0.0196
CC(=O)Nc1ccc(S(=O)(=O)N2C(=O)CCC2C(=O)Nc2ccc(Br)cc2)cc1 (stereo unspecified),9.17 µM,2.64
CC(=O)CCn1ncc(Cl)c(Cl)c1=O,36.2 µM,
C[N+](C)(C)CC1CCCc2ccccc2C1=O (stereo unspecified),12 µM,
COc1cc(C(=O)N2CCN(C=O)C2=S)cc(OC)c1OC,43.3 µM,24.3
Cn1c(I)c(C#CCO[Si](C)(C)C(C)(C)C)c(=O)[nH]c1=O,3.85 µM,1.78
CCCCC#CC1=C(Br)C(=O)OC1,4.13 µM,1.73
Cc1cn2c(=O)c3ncn(C4OC(CO)C(O)C4O)c3n(C)c2n1 (stereo unspecified),> 100 µM,
O=C(Nc1ccc(Br)cc1F)c1cc(F)ccc1O,1.53 µM,0.335
c1ccc(-c2nnc(-c3ccccn3)s2)nc1,> 100 µM,> 100
CN1CCN(C2CCN(C(=O)Nc3cc(Oc4ccc(NC(=O)C5(C(=O)Nc6ccc(F)cc6)CC5)c(F)c4)ccn3)CC2)CC1,2.25 µM,0.703

# Tested on: NCI-H226 lung
# Assay: NCI-60 cell line screen, 48 h
Compound,GI50 [µM],TGI [µM]
CC1(C)N=C(N)N=C(N)N1c1ccc(CCCCc2ccc(Cl)cc2S(=O)(=O)F)c(Cl)c1,1.23,29.2
O=C(Nc1ccc(Nc2ccncc2)cc1)c1ccc([N+](=O)[O-])cc1,12.1,29.7
COc1ccccc1/C=N\N/C(N)=N\N=C\c1ccccc1OC,8.31,> 47
CC[As](CC)SC[C@H](C)C(=O)N1CCC[C@H]1C(=O)O,0.201,0.614
Oc1ccc(Nc2ncnc3c2sc2ncccc23)cc1,0.352,> 100
COc1cccc(CC(C)=C(c2ccc(OCCN(C)C)cc2)c2ccc(OCCN(C)C)cc2)c1,4.8,10.4
C=C1C(=O)OC2CC(C)C(C(CC(C)=O)OC(C)=O)=CCC12 (stereo unspecified),,> 66.4
S=C(Nc1ccc(Cl)cc1)Nc1ccc(-c2nc3ccccc3s2)cc1,17.9,47.4
O=c1/c(=C/c2ccccc2[N+](=O)[O-])sc2nnc(-c3ccco3)n12,,61
COC(=O)C[C@](O)(CCCC(C)(C)O)C(=O)O[C@@H]1C(OC)=C[C@]23CCCN2CCc2cc4c(cc2[C@H]13)OCO4,0.0112,
CC(=O)Nc1ccc(S(=O)(=O)N2C(=O)CCC2C(=O)Nc2ccc(Br)cc2)cc1 (stereo unspecified),2.26,13.2
CC(=O)CCn1ncc(Cl)c(Cl)c1=O,,31.7
C[N+](C)(C)CC1CCCc2ccccc2C1=O (stereo unspecified),,42.2
COc1cc(C(=O)N2CCN(C=O)C2=S)cc(OC)c1OC,35.9,84.6
Cn1c(I)c(C#CCO[Si](C)(C)C(C)(C)C)c(=O)[nH]c1=O,17.1,32.7
CCCCC#CC1=C(Br)C(=O)OC1,3.76,26.6
Cc1cn2c(=O)c3ncn(C4OC(CO)C(O)C4O)c3n(C)c2n1 (stereo unspecified),,> 100
O=C(Nc1ccc(Br)cc1F)c1cc(F)ccc1O,0.67,3.46
c1ccc(-c2nnc(-c3ccccn3)s2)nc1,> 100,> 100
CN1CCN(C2CCN(C(=O)Nc3cc(Oc4ccc(NC(=O)C5(C(=O)Nc6ccc(F)cc6)CC5)c(F)c4)ccn3)CC2)CC1,,> 3.12

# Tested on: NCI-H23 lung
# Assay: NCI-60 cell line screen, 48 h
Compound,GI50 [µM],TGI
CC1(C)N=C(N)N=C(N)N1c1ccc(CCCCc2ccc(Cl)cc2S(=O)(=O)F)c(Cl)c1,0.537,18.5 µM
O=C(Nc1ccc(Nc2ccncc2)cc1)c1ccc([N+](=O)[O-])cc1,10.8,> 62.6 µM
COc1ccccc1/C=N\N/C(N)=N\N=C\c1ccccc1OC,0.618,> 31.2 µM
CC[As](CC)SC[C@H](C)C(=O)N1CCC[C@H]1C(=O)O,0.222,0.616 µM
Oc1ccc(Nc2ncnc3c2sc2ncccc23)cc1,< 0.01,9.53 µM
COc1cccc(CC(C)=C(c2ccc(OCCN(C)C)cc2)c2ccc(OCCN(C)C)cc2)c1,4.42,9.24 µM
C=C1C(=O)OC2CC(C)C(C(CC(C)=O)OC(C)=O)=CCC12 (stereo unspecified),,34.3 µM
S=C(Nc1ccc(Cl)cc1)Nc1ccc(-c2nc3ccccc3s2)cc1,14.1,27.3 µM
O=c1/c(=C/c2ccccc2[N+](=O)[O-])sc2nnc(-c3ccco3)n12,,64 µM
COC(=O)C[C@](O)(CCCC(C)(C)O)C(=O)O[C@@H]1C(OC)=C[C@]23CCCN2CCc2cc4c(cc2[C@H]13)OCO4,0.0246,0.548 µM and 0.086 µM
CC(=O)Nc1ccc(S(=O)(=O)N2C(=O)CCC2C(=O)Nc2ccc(Br)cc2)cc1 (stereo unspecified),1.83,16.6 µM
CC(=O)CCn1ncc(Cl)c(Cl)c1=O,,32.6 µM
C[N+](C)(C)CC1CCCc2ccccc2C1=O (stereo unspecified),,35 µM
COc1cc(C(=O)N2CCN(C=O)C2=S)cc(OC)c1OC,25.9,62 µM
Cn1c(I)c(C#CCO[Si](C)(C)C(C)(C)C)c(=O)[nH]c1=O,19.3,39.5 µM
CCCCC#CC1=C(Br)C(=O)OC1,1.5,9.23 µM
Cc1cn2c(=O)c3ncn(C4OC(CO)C(O)C4O)c3n(C)c2n1 (stereo unspecified),,> 100 µM
O=C(Nc1ccc(Br)cc1F)c1cc(F)ccc1O,0.386,3.15 µM
c1ccc(-c2nnc(-c3ccccn3)s2)nc1,> 100,> 100 µM
